According to ChEMBL document CHEMBL1148819, “Structure, derivatization, and antitumor activity of new griseusins from Nocardiopsis sp” (J Med Chem, 2007):

Columns and labels:
[1] = Cytotoxicity against MAXF583 cells after 2 to 7 days by clonogenic assay; format: functional, cell-based; details: Homo sapiens
[2] = Cytotoxicity against MEXF462NL cells after 4 days by monolayer assay; format: functional, cell-based; details: Homo sapiens, MEXF 462NL, 96 h
[3] = Cytotoxicity against RXF944LX cells after 2 to 7 days by clonogenic assay; format: functional, cell-based; details: Homo sapiens, RXF 944LX
[4] = tested on: MCF7; assay: Cytotoxicity against MCF7 cells after 4 days by monolayer assay; format: functional, cell-based; details: Homo sapiens, MCF7, 96 h
[5] = Cytotoxicity against MAXF1162 cells after 2 to 7 days by clonogenic assay; format: functional, cell-based; details: Homo sapiens
[6] = Cytotoxicity against MEXF514L cells after 4 days by monolayer assay; format: functional, cell-based; details: Homo sapiens, MEXF 514L, 96 h
[7] = tested on: RXF 393; assay: Cytotoxicity against RXF393 cells after 2 to 7 days by clonogenic assay; format: functional, cell-based; details: Homo sapiens
[8] = Cytotoxicity against BXF1218L cells after 4 days by monolayer assay; format: functional, cell-based; details: Homo sapiens, BXF 1218L, 96 h
[9] = tested on: CCRF-CEM; assay: Cytotoxicity against CCRF-CEM cells after 2 to 7 days by clonogenic assay; format: functional, cell-based; details: Homo sapiens
[10] = tested on: MEXF276L; assay: Cytotoxicity against MEXF276L cells after 4 days by monolayer assay; format: functional, cell-based; details: Homo sapiens, 96 h
[11] = Cytotoxicity against MEXF535 cells after 2 to 7 days by clonogenic assay; format: functional, cell-based; details: Homo sapiens
[12] = tested on: MEXF989; assay: Cytotoxicity against MEXF989 cells after 2 to 7 days by clonogenic assay; format: functional, cell-based; details: Homo sapiens, MEXF 989
[13] = Cytotoxicity against LXF-1121L cells after 4 days by monolayer assay; format: functional, cell-based; details: Homo sapiens, 96 h
[14] = Cytotoxicity against human umbilical cord hematopoietic stem cells after 12 days by clonogenic assay; format: cell-based; details: 288 h
[15] = Cytotoxicity against MEXF520L cells after 4 days by monolayer assay; format: functional, cell-based; details: Homo sapiens, MEXF 520L, 96 h
[16] = Cytotoxicity against RXF468L cells after 4 days by monolayer assay; format: functional, cell-based; details: Homo sapiens, 96 h
[17] = Cytotoxicity against CXF264 cells after 2 to 7 days by clonogenic assay; format: functional, cell-based; details: Homo sapiens
[18] = Cytotoxicity against MEXF394NL cells after 4 days by monolayer assay; format: functional, cell-based; details: Homo sapiens, MEXF 394NL, 96 h
[19] = tested on: PAXF736; assay: Cytotoxicity against PAXF736 cells after 2 to 7 days by clonogenic assay; format: functional, cell-based; details: Homo sapiens
[20] = Cytotoxicity against MAXF401 cells after 4 days by monolayer assay; format: functional, cell-based; details: Homo sapiens, MAXF401, 96 h
[21] = Cytotoxicity against CXF1103 cells after 2 to 7 days by clonogenic assay; format: functional, cell-based; details: Homo sapiens
[22] = tested on: RXF 393; assay: Cytotoxicity against RXF393NL cells after 4 days by monolayer assay; format: functional, cell-based; details: Homo sapiens, RXF 393NL, 96 h
[23] = Cytotoxicity against RXF944L cells after 4 days by monolayer assay; format: functional, cell-based; details: Homo sapiens, RXF 944L, 96 h
[24] = tested on: MDA-MB-468; assay: Cytotoxicity against MDA-MB-468 cells after 4 days by monolayer assay; format: functional, cell-based; details: Homo sapiens, MDA-MB-468, 96 h
[25] = tested on: MDA-MB-231; assay: Cytotoxicity against MDA-MB-231 cells after 4 days by monolayer assay; format: functional, cell-based; details: Homo sapiens, MDA-MB-231, 96 h
[26] = tested on: PAXF546; assay: Cytotoxicity against PAXF546 cells after 2 to 7 days by clonogenic assay; format: functional, cell-based; details: Homo sapiens
[27] = Cytotoxicity against PRXF22Rv1 cells after 4 days by monolayer assay; format: functional, cell-based; details: Homo sapiens, 96 h
[28] = Cytotoxicity against CXF158 cells after 2 to 7 days by clonogenic assay; format: functional, cell-based; details: Homo sapiens

C[C@@H]1CC(=O)[C@@H](O)[C@]2(O1)O[C@@H]1CC(=O)O[C@@H]1C1=C2C(=O)c2c(O)cccc2C1=O
IC50 [1]: 195 nM | IC50 [2]: 87 nM | IC50 [3]: 290 nM | IC50 [4]: 150 nM | IC50 [5]: 455 nM | IC50 [6]: 87 nM | IC50 [7]: 375 nM | IC50 [8]: 140 nM | IC50 [9]: 132 nM | IC50 [10]: 87 nM | IC50 [11]: 137 nM | IC50 [12]: 295 nM | IC50 [13]: 207 nM | IC50 [14]: 1190 nM | IC50 [15]: 87 nM | IC50 [16]: 95 nM | IC50 [17]: 257 nM | IC50 [18]: 87 nM | IC50 [19]: 614 nM | IC50 [20]: 150 nM | IC50 [21]: 257 nM | IC50 [22]: 95 nM | IC50 [23]: 95 nM | IC50 [24]: 150 nM | IC50 [25]: 150 nM | IC50 [26]: 420 nM | IC50 [27]: 177 nM | IC50 [28]: 257 nM
